Test results as given in US12539284B2, “Aminoxy acid-based anti-cancer stem cell compounds and methods thereof” (Westlake University, priority 2019, dated 2026).
Read-outs that look alike come from different tables or passages of the source.

Experiments:
[1] = system: MDCK; test: Toxicity against normal cell line MDCK; assay type: cell-based
Description: Fourteen compounds including aminoxy acid monomers and dipeptides have been identified to show toxicity against HEY A8 CSCs. The half maximal inhibitory concentration (IC50) values of compounds sff-2-112, sff-2-124, sff-2-132 and sff-2-100 towards adherent cancer HEY A8, SKOV3 cells and CSCs were further determined. […] Especially compound sff-2-132, its selectivity to CSCs is up to 60-fold higher than that to cancer cells. Their toxicity against other normal cell lines NIH3T3, HEK293 and MDCK were also tested and the IC50 values were summarized in Table 1.

[2] = system: Adherent Hey A8 cells; test: Cell respiration, oxygen consumption rate (Seahorse XF24); assay type: cell-based, human; conditions: FIG. 10; for cell respiration response to subsequent addition of FCCP, antimycin A and rotenone: more obvious at higher doses
Description: Cell respiration was measured by using an XF24 Extracellular Flux Analyzer (Seahorse, Bioscience), which measures the oxygen consumption rate (OCR). Adherent Hey A8 cells were seeded at 50000 cells/well in […] of their culture medium and incubated for 24 h at 37° C. in humidified atmosphere with 5% CO2. The medium was then replaced with 670 μL/well of high-glucose DMEM without serum and supplemented with 1 mM sodium pyruvate and 2 mM L-glutamine. The oxygen consumption rate (OCR) was measured with an extracellular flux analyzer (Seahorse) at preset time intervals upon the preprogrammed additions of the following compounds: Oligomycin to 1 μM, FCCP to 500 nM, Antimycin A and Rotenone to 0.5 μM final concentrations.

[3] = system: HEY A8 cells; test: Mitochondrial membrane potential (JC-1 red to green ratio); assay type: cell-based, human; conditions: for mitochondrial membrane potential, kinetic study: 10 μM added at 180 s, image interval 30 s; for mitochondrial membrane potential depolarization: treated 10 min, FIG. 8a
Description: A suspension of HEY A8 cells at the concentration of 5×10^4 cells/mL in DMEM medium were seeded into 30-mm cell culture dishes with glass bottom (MatTek). Cells were incubated at 37° C. in a humidified atmosphere containing 5% CO2 for 24 h. Medium was aspirated and cells was washed with PBS buffer twice. Then 1 mL HBSS buffer containing 2.5 μM JC-1 was added. Cells were incubated at 37° C. for 20 min before the buffer was aspirated. Cells were washed with PBS buffer twice and treated with cation transporters for 10 min. Fluorescence was monitored by confocal imaging with ZEISS LSM 780 (Red channel: λex=543 nm, Green channel: λex=488 nm). Quantitative data were obtained using the ZEN and Graph Pad Prism software packages.
The Kinetic study of this compound on the MMP in HEY A8 cells was also conducted. Compound sff-2-112 (“Example 1”) or sff-2-132 (“Example 4”) at the final concentration of 10 μM was added at 180 s. The interval for each image was 30 s. The decrease in red to green fluorescence ratio of JC-1 indicates MMP depolarization.

[4] = system: HEY A8 cancer cells; test: Apoptosis, Annexin V / PI flow cytometry, cancer cells; assay type: cell-based, human; conditions: 30 μM, 2 days
Description: A suspension of HEY A8 cells at the concentration of 5×10^4 cells/mL in DMEM medium were seeded into 60-mm cell culture dishes. Cells were incubated at 37° C. in a humidified atmosphere containing 5% CO2 for 24 h followed by the addition of 4 mL fresh medium or medium containing compound sff-2-112 (“Example 1”) or sff-2-132 (“Example 4”) at different concentration. […] After 2 days, the medium was aspirated and cells were washed with cold PBS twice, and then stained with PI and Annexin V according to the manufacture's instruction (Dead Cell Apoptosis Kit with Annexin V Alexa Fluor™ 488 & Propidium Iodide, Thermo Fisher). Cells were analyzed by flow cytometry (BD FACS CantoII Analyzer).

[5] = system: HEY A8 cells; test: Superoxide production (HKSOX-2m fluorescence); assay type: cell-based, human; conditions: 5 μM, within 30 min
Description: The ability of compound sff-2-112 (“Example 1”) or sff-2-132 (“Example 4”) to induce ROS production was also evaluated on HEY A8 cells (FIG. 9). The ROS production was monitored by superoxide fluorescent probe HKSOX-2m. The increase in fluorescence intensity indicated superoxide production. (n=50-100 cells).
A suspension of HEY A8 cells at the concentration of 5×10^4 cells/mL in DMEM medium were seeded into 30-mm cell culture dishes with glass bottom (MatTek). Cells were incubated at 37° C. in a humidified atmosphere containing 5% CO2 for 24 h. Medium was aspirated and cells was washed with PBS buffer twice. Then 1 mL HBSS buffer containing 4 μM HKSOX-2m was added. Cells were incubated at 37° C. for 30 min before the buffer was aspirated and washed twice with HBSS buffer. Cells were imaged in 0.8 mL HBSS buffer. Fluorescence was monitored by confocal microscope (ZEISS LSM 710; Red channel: λex=543 nm). At t=180 s, compound in 0.2 mL HBSS buffer was added to give the final concentration of 5 μM. Quantitative data were obtained using the ZEN and GraphPad Prism software.

[6] = system: HEY A8 cancer cells; test: Cell viability (CellTiter-Glo) on adherent HEY A8 cancer cells; assay type: cell-based, human; conditions: read-out: IC50 Cancer Cell HeyA8
Description: Cell Cultures Human ovarian carcinoma cell lines HEY A8 and SKOV3 were gifts from Professor Alice Wong's group (The University of Hong Kong). Cells were grown in Dulbecco's Modified Eagle (DMEM) medium supplemented with 10% FBS and 1% penicillin/streptomycin at 37° C. in a humidified atmosphere containing […] CO2. Isolation and culture of spheres were performed in serum-free stem-cell-selective condition as described in literature Ip etl. Oncogene 2014, 5, 9133-9149. Briefly, 1-2 weeks after plating, non-adherent spherical clusters of cells could be observed and were separated from single cells by low speed centrifugation. After 8th to 10th passages, the non-adherent spherical clusters of cells appeared as distinct spheres. Using this selection condition, HEY A8 spheres (HEY A8 SP) or SKOV3 spheres (SKOV3 SP) could be enzymatically dissociated and reformed into spheres within 3 days under stem-cell-selective condition. To allow differentiation, dissociated sphere cells were plated on tissue culture plates in medium (MCDB 105:M199=1:1) supplemented with 10% FBS and 1% PS.
HEY A8 or SKOV3 cancer Cells were plated in triplicate in 0.1 mL full medium in 96-well plates for 24 h. After that, the medium was changed to the fresh prepared medium with various concentrations of compounds. Cells were incubated for another 48 h. Then the cell viability was measured by CellTiter-Glo® Luminescent Cell Viability reagent according to the manufacture's instruction. The luminescence at 550 nm was measured using a microplate reader (SpectraMax 340PC 384, Molecular Devices).

Row | SMILES | IC50 [1] [µM] | OCR after addition of compound [2] | cell respiration response to subsequent addition of FCCP, antimycin A and rotenone [2] | mitochondrial membrane potential, kinetic study [3] | mitochondrial membrane potential depolarization [3] | Annexin V positive cells, cancer cells [4] [%] | increasement of superoxide production [5] | IC50 ([6]; 48 h incubation) [µM] | IC50 ([1]; Canis lupus familiaris, MDCK) [µM] | IC50 ([6]; Homo sapiens, HEY A8, 48 h incubation) [µM]
1 | O=C(NO[C@H](COCc1ccccc1)C(=O)Nc1ccccc1)c1cc(C(F)(F)F)cc(C(F)(F)F)c1 [sff-2-112] | 25.1 ± 1.1 | OCR immediately increased | significantly decreased | MMP depolarized immediately | effectively depolarize mitochondrial membrane potential (MMP) of HEY A8 cells in a dose dependent manner | 8.21 | about 2 fold | 23.4 ± 2.1 | – | –
2 | CC(C)(C)OC(=O)[C@@H](COCc1ccccc1)ONC(=O)c1cc(C(F)(F)F)cc(C(F)(F)F)c1 [sff-2-132] | – | OCR immediately increased | significantly decreased | MMP depolarized immediately | effectively depolarize mitochondrial membrane potential (MMP) of HEY A8 cells in a dose dependent manner | 1.30 | about 2 fold | – | 49.1 ± 0.4 | 52.9 ± 1.9
